Results published in patent publication US20110319811A1 (priority 2010, published 2011).
Like-named read-outs stand apart in the source and are kept apart here.

Test: Pharmacokinetic study GW01-0706 under maximal use conditions (serum imiquimod)
Format: in vivo, human
Protocol: An open label, single center, non-randomized pharmacokinetic (PK) study in adult subjects diagnosed with actinic keratosis (“AK”) is conducted. […] The study is conducted under maximal use conditions (dose, duration, disease severity, and application areas) in a population that had at least 10 AK lesions in the application area. The application area is the entire face (exclusive of nares, vermilion, periocular areas and ears) and/or the entire balding scalp; areas estimated as approximately 200 cm^2. If the area of the entire balding scalp is less than 200 cm^2, the forehead area is included in order for the entire treatment area to be approximately 200 cm^2.
Subjects stay at the study center overnight at treatment initiation (Day 1, 1st dose), and end of treatment (Day 21, last dose) visits for collection of a 24-hour serum PK profile. […] Single serum samples for PK analyses of trough concentrations are obtained at Day 7 and Day 14 (in the morning prior to dosing).
Adverse events, study medication accountability, and dosing compliance are reviewed at each visit. Routine clinical laboratory assessments (serum chemistry, hematology and urinalysis) are performed at Screening, Day 1 (predose), and the end of study visits.
Trough serum concentrations are obtained on Days 7, 14, 21, and 22. The trough concentrations on Days 7 and 14 are obtained during outpatient treatment while the trough concentrations on Days 21 and 22 are obtained while the subjects are dosed in the clinical research facility.

[1] = Steady-State (Day 21), 3.75% imiquimod cream 2 packets daily

CC(C)Cn1cnc2c(N)nc3ccccc3c21 [imiquimod, 1-isobutyl-1H-imidazo[4,5-c]-quinolin-4-amine]
Imiquimod trough concentration, Geometric LS Mean Reference (Day 21/14 comparison (Reference = Day 14), subjects with paired, non-zero data, 3.75% imiquimod cream 2 packets daily): 0.1344 ng/mL
Imiquimod trough concentration, Geometric LS Mean Test (Day 21/14 comparison (Test = Day 21), subjects with paired, non-zero data, 3.75% imiquimod cream 2 packets daily): 0.1791 ng/mL
λz, Geometric Mean [1]: 0.027 h⁻¹
λz, Mean [1]: 0.029 h⁻¹
λz, Median [1]: 0.0271 h⁻¹
concentration at 7 day (trough) (human, topical): 0.128 ng/mL
concentration at 14 day (trough) (human, topical): 0.139 ng/mL
concentration at 21 day (trough) (human, topical): 0.179 ng/mL
concentration at 22 day (trough) (human, topical): 0.167 ng/mL
AUC(0-t) (human, topical, Steady-State (Day 21), 3.75% imiquimod cream 2 packets daily, read-out: AUC0-24, Geometric Mean): 5.03 ng·h/mL
AUC(0-t) (human, topical, Steady-State (Day 21), 3.75% imiquimod cream 2 packets daily, read-out: AUC0-24, Mean): 5.97 ng·h/mL
AUC(0-t) (human, topical, Steady-State (Day 21), 3.75% imiquimod cream 2 packets daily, read-out: AUC0-24, Median): 7.02 ng·h/mL
Cmax (human, topical, Steady-State (Day 21), 3.75% imiquimod cream 2 packets daily, read-out: Cmax, Geometric Mean): 0.274 ng/mL
Cmax (human, topical, Steady-State (Day 21), 3.75% imiquimod cream 2 packets daily, read-out: Cmax, Mean): 0.323 ng/mL
Cmax (human, topical, Steady-State (Day 21), 3.75% imiquimod cream 2 packets daily, read-out: Cmax, Median): 0.35 ng/mL
